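Following 48 hours of exposure in 96-well plates, responses at five concentrations were used to interpolate endpoints linearly. Definition used: TGI = concentration required for complete inhibition of growth.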
What was measured:
Assay in all cases: NCI anticancer screen, dose series, 48 h
SK-MEL-5 melanoma = tested on: SK-MEL-5 melanoma
HCC-2998 colon = tested on: HCC-2998 colon
SNB-19 CNS = tested on: SNB-19 CNS
UO-31 renal = tested on: UO-31 renal
UACC-62 melanoma = tested on: UACC-62 melanoma
EKVX NSCLC = tested on: EKVX NSCLC
HCT-15 colon = tested on: HCT-15 colon
NCI-H460 lung = tested on: NCI-H460 lung
OVCAR-4 ovarian = tested on: OVCAR-4 ovarian
SNB-75 CNS = tested on: SNB-75 CNS
DU-145 prostate = tested on: DU-145 prostate
SR leukemia = tested on: SR leukemia
CAKI-1 renal = tested on: CAKI-1 renal
TK-10 renal = tested on: TK-10 renal
IGROV1 ovarian = tested on: IGROV1 ovarian

CCOC(=O)c1c(N2CCCC2)[nH]c(=O)c(C(c2cccs2)c2c(O)c(C(=O)OCC)c(N3CCCC3)[nH]c2=O)c1O
TGI (SK-MEL-5 melanoma): > 100 µM | TGI (HCC-2998 colon): > 100 µM | TGI (SNB-19 CNS): > 100 µM | TGI (UO-31 renal): > 100 µM | TGI (UACC-62 melanoma): > 100 µM | TGI (EKVX NSCLC): > 100 µM | TGI (HCT-15 colon): > 100 µM | TGI (NCI-H460 lung): > 100 µM | TGI (OVCAR-4 ovarian): > 100 µM | TGI (SNB-75 CNS): > 100 µM | TGI (DU-145 prostate): > 100 µM | TGI (SR leukemia): > 100 µM | TGI (CAKI-1 renal): > 100 µM | TGI (TK-10 renal): > 100 µM

O=c1oc2ccc([N+](=O)[O-])cc2c(Nc2ccc3c(c2)S(=O)(=O)c2ccccc2O3)c1[N+](=O)[O-]
TGI (SK-MEL-5 melanoma): > 100 µM | TGI (HCC-2998 colon): > 100 µM | TGI (SNB-19 CNS): > 100 µM | TGI (UO-31 renal): > 100 µM | TGI (UACC-62 melanoma): > 100 µM | TGI (EKVX NSCLC): > 100 µM | TGI (HCT-15 colon): > 100 µM | TGI (NCI-H460 lung): > 100 µM | TGI (OVCAR-4 ovarian): > 100 µM | TGI (SNB-75 CNS): > 100 µM | TGI (DU-145 prostate): > 100 µM | TGI (IGROV1 ovarian): > 100 µM | TGI (SR leukemia): > 100 µM | TGI (CAKI-1 renal): > 100 µM | TGI (TK-10 renal): > 100 µM

COc1ccc(CCNCCCC2c3ccccc3-c3ccccc32)cc1OC
TGI (SK-MEL-5 melanoma): 23.3 µM | TGI (HCC-2998 colon): 3.88 µM | TGI (SNB-19 CNS): 31.8 µM | TGI (UO-31 renal): 24.4 µM | TGI (UACC-62 melanoma): 30.3 µM | TGI (EKVX NSCLC): 30.8 µM | TGI (HCT-15 colon): 29 µM | TGI (NCI-H460 lung): 18.3 µM | TGI (OVCAR-4 ovarian): 30.5 µM | TGI (SNB-75 CNS): 27.2 µM | TGI (DU-145 prostate): 28.9 µM | TGI (IGROV1 ovarian): 26.8 µM | TGI (SR leukemia): 24.2 µM | TGI (CAKI-1 renal): 33.4 µM | TGI (TK-10 renal): 27.7 µM

S=C1N=C(Cl)/C(=C\c2ccccc2)N1
TGI (SK-MEL-5 melanoma): > 100 µM | TGI (HCC-2998 colon): > 100 µM | TGI (SNB-19 CNS): > 100 µM | TGI (UO-31 renal): > 100 µM | TGI (UACC-62 melanoma): > 100 µM | TGI (EKVX NSCLC): > 100 µM | TGI (HCT-15 colon): > 100 µM | TGI (NCI-H460 lung): > 100 µM | TGI (OVCAR-4 ovarian): > 100 µM | TGI (SNB-75 CNS): > 100 µM | TGI (DU-145 prostate): > 100 µM | TGI (IGROV1 ovarian): > 100 µM | TGI (SR leukemia): > 100 µM | TGI (CAKI-1 renal): > 100 µM | TGI (TK-10 renal): > 100 µM

CN(C)CC1CN=C(NC(=O)Nc2ccccc2)O1 (stereo not drawn)
TGI (SK-MEL-5 melanoma): > 100 µM | TGI (HCC-2998 colon): > 100 µM | TGI (SNB-19 CNS): > 100 µM | TGI (UO-31 renal): > 100 µM | TGI (UACC-62 melanoma): > 100 µM | TGI (EKVX NSCLC): > 100 µM | TGI (HCT-15 colon): > 100 µM | TGI (NCI-H460 lung): > 100 µM | TGI (OVCAR-4 ovarian): > 100 µM | TGI (SNB-75 CNS): > 100 µM | TGI (DU-145 prostate): > 100 µM | TGI (IGROV1 ovarian): > 100 µM | TGI (SR leukemia): > 100 µM | TGI (CAKI-1 renal): > 100 µM | TGI (TK-10 renal): > 100 µM

O=C1c2ccccc2C(=O)c2oc(Br)cc21
TGI (SK-MEL-5 melanoma): 0.284 µM | TGI (HCC-2998 colon): 3.27 µM | TGI (SNB-19 CNS): 2.87 µM | TGI (UO-31 renal): 2.85 µM | TGI (UACC-62 melanoma): 1.84 µM | TGI (EKVX NSCLC): 4.07 µM | TGI (HCT-15 colon): 1.91 µM | TGI (NCI-H460 lung): 2.64 µM | TGI (OVCAR-4 ovarian): 3.55 µM | TGI (SNB-75 CNS): 0.684 µM | TGI (DU-145 prostate): 0.491 µM | TGI (IGROV1 ovarian): 3.08 µM | TGI (SR leukemia): 5.78 µM | TGI (CAKI-1 renal): 3.43 µM | TGI (TK-10 renal): 6.15 µM

NC(=O)c1cccc([C@@H]2O[C@H](CO)[C@@H](O)[C@H]2O)c1
TGI (SK-MEL-5 melanoma): 53.2 µM | TGI (HCC-2998 colon): > 87.6 µM | TGI (SNB-19 CNS): 34.3 µM | TGI (UO-31 renal): 15.7 µM | TGI (UACC-62 melanoma): 60 µM | TGI (EKVX NSCLC): > 100 µM | TGI (HCT-15 colon): 11.7 µM | TGI (NCI-H460 lung): > 100 µM | TGI (OVCAR-4 ovarian): 19.7 µM | TGI (SNB-75 CNS): 14.4 µM | TGI (DU-145 prostate): > 50.6 µM | TGI (IGROV1 ovarian): 85.6 µM | TGI (SR leukemia): > 82.2 µM | TGI (CAKI-1 renal): > 69.1 µM | TGI (TK-10 renal): 99.1 µM

N#CC(C#N)=Cn1c(=S)[nH]c2ccccc21
TGI (SK-MEL-5 melanoma): > 100 µM | TGI (HCC-2998 colon): > 100 µM | TGI (SNB-19 CNS): > 100 µM | TGI (UO-31 renal): > 100 µM | TGI (UACC-62 melanoma): > 100 µM | TGI (EKVX NSCLC): > 100 µM | TGI (NCI-H460 lung): > 100 µM | TGI (OVCAR-4 ovarian): > 100 µM | TGI (SNB-75 CNS): > 100 µM | TGI (DU-145 prostate): > 100 µM | TGI (IGROV1 ovarian): > 100 µM | TGI (SR leukemia): > 100 µM | TGI (CAKI-1 renal): > 100 µM | TGI (TK-10 renal): > 100 µM
